# According to patent US10392428B2, “GLP-1 derivatives and uses thereof” (Novo Nordisk A/S, priority 2014, dated 2019):
# Read-outs that look alike come from different tables or passages of the source.
# Assays:
# [1] = target: T1, human GLP-1 receptor (Homo sapiens, UniProt P43220); experiment: GLP-1 receptor binding: competitive binding assay (125I-GLP-1, SPA) on isolated membranes at low and high HSA; settings: High HSA IC50 (nM), high HSA (2.0% final assay concentration)
# T1 construct: expressed in transfected cells; host or cells: membrane preparation from BHK cells, clone FCW467-12A (parent line BHKTS13)
# T1 sequence (P43220 24-463): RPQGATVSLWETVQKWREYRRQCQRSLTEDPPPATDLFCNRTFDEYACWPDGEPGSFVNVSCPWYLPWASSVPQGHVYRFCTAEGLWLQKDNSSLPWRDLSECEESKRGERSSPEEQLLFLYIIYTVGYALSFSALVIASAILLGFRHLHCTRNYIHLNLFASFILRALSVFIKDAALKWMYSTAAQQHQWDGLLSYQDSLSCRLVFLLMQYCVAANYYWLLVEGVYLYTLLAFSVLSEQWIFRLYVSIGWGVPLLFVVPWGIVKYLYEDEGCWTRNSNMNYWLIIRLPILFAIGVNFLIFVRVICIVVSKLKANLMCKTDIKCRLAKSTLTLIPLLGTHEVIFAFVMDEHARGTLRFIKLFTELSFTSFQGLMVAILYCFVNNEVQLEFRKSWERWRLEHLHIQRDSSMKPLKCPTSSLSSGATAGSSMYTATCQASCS
# Method: The purpose of this example is to test the receptor binding of the GLP-1 derivatives in vitro. The receptor binding is a measure of affinity of a derivative for the human GLP-1 receptor.
# Each derivative is added in a series of concentrations to isolated membranes containing the human GLP-1 receptor and displacement of the labelled ligand is monitored. The receptor binding is reported as the concentration at which half of the labelled ligand is displaced from the receptor, the IC50 value.
# Buffer 1 consisted of 20 mM Na-HEPES plus 10 mM EDTA and pH was adjusted to 7.4. Buffer 2 consisted of 20 mM Na-HEPES plus 0.1 mM EDTA and pH was adjusted to 7.4. Assay buffer consisted of 50 mM HEPES supplemented with 5 mM EGTA, 5 mM MgCl2, 0.005% Tween 20 and pH was adjusted to 7.4. An 8% albumin stock consisted of HSA dissolved at 8% (w/v) in assay buffer. An 0.02% albumin stock consisted of HSA dissolved at 0.02% (w/v) in assay buffer.
# The cells express the human GLP-1 receptor.
# The cells were grown at 5% CO2 in DMEM, 10% fetal calf serum, 1% Pen/Strep (Penicillin/Streptomycin) and 1.0 mg/ml of the selection marker G418.
# To make a membrane preparation the cells were grown to approximately 80% confluence. The cells were washed twice in phosphate-buffered saline and harvested. The cells were pelleted using a brief centrifugation and the cell pellet was kept on ice. […] The homogenate was centrifuged for 15 minutes. The pellet was re-suspended (homogenised) in 10 ml buffer 2 and centrifuged. This step was repeated once more. The resulting pellet was re-suspended in buffer 2 and the protein concentration was determined. The membranes were aliquoted and stored at minus 80° C.
# For the receptor binding assay in the presence of low HSA (0.005%) 50 μl of the assay buffer was added to each well of an assay plate.
# For the receptor binding assay in the presence of high HSA (2%) 50 μl of the 8% albumin stock was added to each well of an assay plate.
# Cell membrane aliquots were thawed and diluted to their working concentration. Fifty μl were added to each well in the assay plate.
# WGA SPA beads were suspended in assay buffer at 20 mg/ml. The suspension was diluted to 10 mg/ml in assay buffer just prior to addition to the assay plate. Fifty μl were added to each well in the assay plate.
# A 25 μl aliquot was reserved for measuring total counts/well.
# The assay plate was incubated for 2 h at 30° C.
# The assay plate was centrifuged for 10 min.
# The assay plate was read in a Packard TopCount NXT instrument.
# The data from the TopCount instrument were transferred to Graph Pad Prism software. Individual replicates were analysed using non-linear regression. IC50 values were calculated by the software and reported in nM. The reported values are averages of all of the measured values for each compound.
# [2] = Pharmacokinetic study in minipigs (i.v.); settings: male, Göttingen, minipig, in vivo, iv, minipigs, i.v., harmonic mean, read-out: Terminal half-live (converted)
# Method: The derivatives of Examples 12, 14, and 15 were dosed 2 nmol/kg. The derivatives of Examples 1 and 2 were dosed 15 nmol/kg.
smiles,measurement,setting,value
"CC[C@H](C)[C@H](NC(=O)[C@H](Cc1ccccc1)NC(=O)[C@H](CCC(=O)O)NC(=O)[C@H](CCCNC(=N)N)NC(=O)[C@H](C)NC(=O)[C@H](C)NC(=O)[C@H](CCC(N)=O)NC(=O)[C@H](CCC(=O)O)NC(=O)[C@H](CCC(=O)O)NC(=O)[C@H](CC(C)C)NC(=O)[C@H](Cc1ccc(O)cc1)NC(=O)[C@H](CO)NC(=O)[C@H](CO)NC(=O)[C@@H](NC(=O)[C@H](CC(=O)O)NC(=O)[C@H](CO)NC(=O)[C@@H](NC(=O)[C@H](Cc1ccccc1)NC(=O)[C@@H](NC(=O)CNC(=O)[C@H](CCC(=O)O)NC(=O)C(C)(C)NC(=O)[C@@H](N)Cc1c[nH]cn1)[C@@H](C)O)[C@@H](C)O)C(C)C)C(=O)N[C@@H](C)C(=O)N[C@@H](Cc1c[nH]c2ccccc12)C(=O)N[C@@H](CC(C)C)C(=O)N[C@H](C(=O)N[C@@H](CCCNC(=N)N)C(=O)NCC(=O)N[C@@H](CCCNC(=N)N)C(=O)N[C@@H](CCCCNC(=O)[C@@H](N)CCCCNC(=O)[C@@H](N)CCCCNC(=O)[C@H](CCCCNC(=O)CC[C@H](NC(=O)[C@H]1CC[C@H](CNC(=O)CCCCCCCCCCCCCCCCCCC(=O)O)CC1)C(=O)O)NC(=O)CC[C@H](NC(=O)[C@H]1CC[C@H](CNC(=O)CCCCCCCCCCCCCCCCCCC(=O)O)CC1)C(=O)O)C(=O)O)C(C)C [Example 9, N{Epsilon-37}-[(2S)-2-amino-6-[[(2S)-2-amino-6-[[(2S)-2,6-bis[[(4S)-4-carboxy-4-[[4-[(19-carboxynonadecanoylamino)methyl]cyclohexanecarbonyl]amino]butanoyl]amino]hexanoyl]amino]hexanoyl]amino]hexanoyl]-[Aib8,Glu22,Arg26,Arg34,Lys37]-GLP-1-(7-37)-peptide]",IC50,[1],150 nM
CC[C@H](C)[C@H](NC(=O)[C@H](Cc1ccccc1)NC(=O)[C@H](CCC(=O)O)NC(=O)[C@H](CCCNC(=N)N)NC(=O)[C@H](C)NC(=O)[C@H](C)NC(=O)[C@H](CCC(N)=O)NC(=O)[C@H](CCC(=O)O)NC(=O)[C@H](CCC(=O)O)NC(=O)[C@H](CC(C)C)NC(=O)[C@H](Cc1ccc(O)cc1)NC(=O)[C@H](CO)NC(=O)[C@H](CO)NC(=O)[C@@H](NC(=O)[C@H](CC(=O)O)NC(=O)[C@H](CO)NC(=O)[C@@H](NC(=O)[C@H](Cc1ccccc1)NC(=O)[C@@H](NC(=O)CNC(=O)[C@H](CCC(=O)O)NC(=O)C(C)(C)NC(=O)[C@@H](N)Cc1c[nH]cn1)[C@@H](C)O)[C@@H](C)O)C(C)C)C(=O)N[C@@H](C)C(=O)N[C@@H](Cc1c[nH]c2ccccc12)C(=O)N[C@@H](CC(C)C)C(=O)N[C@H](C(=O)N[C@@H](CCCNC(=N)N)C(=O)NCC(=O)N[C@@H](CCCNC(=N)N)C(=O)N[C@@H](CCCCNC(=O)COCCOCCNC(=O)COCCOCCNC(=O)[C@H](CCCCNC(=O)COCCOCCNC(=O)COCCOCCNC(=O)COCCOCCNC(=O)COCCOCCNC(=O)CC[C@H](NC(=O)[C@H]1CC[C@H](CNC(=O)CCCCCCCCCCCCCCCCCCC(=O)O)CC1)C(=O)O)NC(=O)COCCOCCNC(=O)COCCOCCNC(=O)COCCOCCNC(=O)COCCOCCNC(=O)CC[C@H](NC(=O)[C@H]1CC[C@H](CNC(=O)CCCCCCCCCCCCCCCCCCC(=O)O)CC1)C(=O)O)C(=O)O)C(C)C [Example 14],half-life,[2]; 2 nmol/kg,135 h
"CC[C@H](C)[C@H](NC(=O)[C@H](Cc1ccccc1)NC(=O)[C@H](CCC(=O)O)NC(=O)[C@H](CCCNC(=N)N)NC(=O)[C@H](C)NC(=O)[C@H](C)NC(=O)[C@H](CCC(N)=O)NC(=O)[C@H](CCC(=O)O)NC(=O)[C@H](CCC(=O)O)NC(=O)[C@H](CC(C)C)NC(=O)[C@H](Cc1ccc(O)cc1)NC(=O)[C@H](CO)NC(=O)[C@H](CO)NC(=O)[C@@H](NC(=O)[C@H](CC(=O)O)NC(=O)[C@H](CO)NC(=O)[C@@H](NC(=O)[C@H](Cc1ccccc1)NC(=O)[C@@H](NC(=O)CNC(=O)[C@H](CCC(=O)O)NC(=O)C(C)(C)NC(=O)[C@@H](N)Cc1c[nH]cn1)[C@@H](C)O)[C@@H](C)O)C(C)C)C(=O)N[C@@H](C)C(=O)N[C@@H](Cc1c[nH]c2ccccc12)C(=O)N[C@@H](CC(C)C)C(=O)N[C@H](C(=O)N[C@@H](CCCNC(=N)N)C(=O)NCC(=O)N[C@@H](CCCNC(=N)N)C(=O)N[C@@H](CCCCNC(=O)COCCOCCNC(=O)COCCOCCNC(=O)COCCOCCNC(=O)COCCOCCNC(=O)[C@H](CCCCNC(=O)CC[C@H](NC(=O)[C@H]1CC[C@H](CNC(=O)CCCCCCCCCCCCCCCCCCC(=O)O)CC1)C(=O)O)NC(=O)CC[C@H](NC(=O)[C@H]1CC[C@H](CNC(=O)CCCCCCCCCCCCCCCCCCC(=O)O)CC1)C(=O)O)C(=O)O)C(C)C [Example 8, N{Epsilon-37}-[2-[2-[2-[[2-[2-[2-[[2-[2-[2-[[2-[2-[2-[[(2S)-2,6-bis[[(4S)-4-carboxy-4-[[4-[(19-carboxynonadecanoylamino)methyl]cyclohexanecarbonyl]amino]butanoyl]amino]hexanoyl]amino]ethoxy]ethoxy]acetyl]amino]ethoxy]ethoxy]acetyl]amino]ethoxy]ethoxy]acetyl]amino]ethoxy]ethoxy]acetyl]-[Aib8,Glu22,Arg26,Arg34,Lys37]-GLP-1-(7-37)-peptide]",half-life,[2]; 5 nmol/kg,145 h
"CC[C@H](C)[C@H](NC(=O)[C@H](Cc1ccccc1)NC(=O)[C@H](CCC(=O)O)NC(=O)[C@H](CCCNC(=N)N)NC(=O)[C@H](C)NC(=O)[C@H](C)NC(=O)[C@H](CCC(N)=O)NC(=O)[C@H](CCC(=O)O)NC(=O)[C@H](CCC(=O)O)NC(=O)[C@H](CC(C)C)NC(=O)[C@H](Cc1ccc(O)cc1)NC(=O)[C@H](CO)NC(=O)[C@H](CO)NC(=O)[C@@H](NC(=O)[C@H](CC(=O)O)NC(=O)[C@H](CO)NC(=O)[C@@H](NC(=O)[C@H](Cc1ccccc1)NC(=O)[C@@H](NC(=O)CNC(=O)[C@H](CCC(=O)O)NC(=O)C(C)(C)NC(=O)[C@@H](N)Cc1c[nH]cn1)[C@@H](C)O)[C@@H](C)O)C(C)C)C(=O)N[C@@H](C)C(=O)N[C@@H](Cc1c[nH]c2ccccc12)C(=O)N[C@@H](CC(C)C)C(=O)N[C@H](C(=O)N[C@@H](CCCNC(=N)N)C(=O)NCC(=O)N[C@@H](CCCNC(=N)N)C(=O)N[C@@H](CCCCNC(=O)COCCOCCNC(=O)COCCOCCNC(=O)[C@H](CCCCNC(=O)COCCOCCNC(=O)COCCOCCNC(=O)CC[C@H](NC(=O)[C@H]1CC[C@H](CNC(=O)CCCCCCCCCCCCCCCCCCC(=O)O)CC1)C(=O)O)NC(=O)COCCOCCNC(=O)COCCOCCNC(=O)CC[C@H](NC(=O)[C@H]1CC[C@H](CNC(=O)CCCCCCCCCCCCCCCCCCC(=O)O)CC1)C(=O)O)C(=O)O)C(C)C [Example 2, N{Epsilon-37}-[2-[2-[2-[[2-[2-[2-[[(2S)-2,6-bis[[2-[2-[2-[[2-[2-[2-[[(4S)-4-carboxy-4-[[4-[(19-carboxynonadecanoylamino)methyl]cyclohexanecarbonyl]amino]butanoyl]amino]ethoxy]ethoxy]acetyl]amino]ethoxy]ethoxy]acetyl]amino]hexanoyl]amino]ethoxy]ethoxy]acetyl]amino]ethoxy]ethoxy]acetyl]-[Aib8,Glu22,Arg26,Arg34,Lys37]-GLP-1-(7-37)-peptide]",half-life,[2]; 15 nmol/kg,130 h
